The source of these data is PubChem BioAssay AID248 (DTP/NCI, 2004).

This experiment concerns L1210 leukemia ip in BDF1 mice, survival T/C. Kind of experiment: NCI In Vivo Anticancer Drug Screen. Data for tumor model L1210 Leukemia (intraperitoneal) in B6D2F1 (BDF1) mice. The following applies: endpoint: mean survival time, higher = longer survival. The method in brief: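 Ratio derived from survival: compound-dosed mice over vehicle-dosed mice, all bearing a transplantable tumor.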

Where [1] appears, read: dose: 200.0 mg/kg/injection, schedule: Q04DX003 (ip), vehicle: saline.
Where [2] appears, read: dose: 400.0 mg/kg/injection, schedule: Q04DX003 (ip), vehicle: saline with Tween-80.
The mark [3] stands for this setting: dose: 100.0 mg/kg/injection, schedule: Q01DX009 (ip), vehicle: Klucel (hydroxypropylcellulose) (HPC).
Setting [4] is: dose: 200.0 mg/kg/injection, schedule: Q01DX009 (ip), vehicle: Klucel (hydroxypropylcellulose) (HPC).
Setting [5] is: dose: 100.0 mg/kg/injection, schedule: Q04DX003 (ip), vehicle: saline with Tween-80.
Setting [6] is: dose: 200.0 mg/kg/injection, schedule: Q04DX003 (ip), vehicle: saline with Tween-80.
Setting [7] is: dose: 100.0 mg/kg/injection, schedule: Q01DX009 (ip), vehicle: saline.
[8] abbreviates: dose: 200.0 mg/kg/injection, schedule: Q01DX009 (ip), vehicle: saline.
The mark [9] stands for this setting: dose: 100.0 mg/kg/injection, schedule: Q01DX001 (ip), vehicle: Klucel (hydroxypropylcellulose) (HPC).
Where [10] appears, read: dose: 200.0 mg/kg/injection, schedule: Q01DX001 (ip), vehicle: Klucel (hydroxypropylcellulose) (HPC).
[11] abbreviates: dose: 50.0 mg/kg/injection, schedule: Q01DX009 (ip), vehicle: Klucel (hydroxypropylcellulose) (HPC).

Where “and” joins values, the source holds several entries; their conditions need not be identical. Identical values can stand only once. Inconclusive results and toxic doses are left out.

On to `CCCCc1ccc2nc(NC(=O)OC)[nH]c2c1`, for which the T/C was 99 % of control (dose: 50.0 mg/kg/injection, schedule: Q01DX009 (oral), vehicle: saline with Tween-80); 109 % of control (dose: 100.0 mg/kg/injection, schedule: Q01DX009 (oral), vehicle: saline with Tween-80); 105 % of control (dose: 100.0 mg/kg/injection, schedule: Q04DX003 (oral), vehicle: saline with Tween-80); 108 % of control (dose: 200.0 mg/kg/injection, schedule: Q01DX009 (oral), vehicle: saline with Tween-80); 172 % of control under setting [1]; 105 % of control (dose: 200.0 mg/kg/injection, schedule: Q04DX003 (oral), vehicle: saline with Tween-80). Besides, the T/C runs as follows: (dose: 300.0 mg/kg/injection, schedule: Q04DX003 (ip), vehicle: saline) 160 % of control; under setting [2], 107 % of control; (dose: 400.0 mg/kg/injection, schedule: Q04DX003 (oral), vehicle: saline with Tween-80) 114 % of control.

As to `NC(N)=NC(N)=Nc1ccc(Cl)cc1`, the T/C (dose: 100.0 mg/kg/injection, schedule: Q04DX003 (ip), vehicle: Klucel (hydroxypropylcellulose) (HPC)) was 103 % of control.

For the compound `COc1ccc(/C=N/NC(=S)Nc2ccccc2)cc1OC`, the T/C was 94 % of control and 100 % of control under setting [3]; 89 % of control under setting [4]; 96 % of control and 86 % of control (dose: 400.0 mg/kg/injection, schedule: Q01DX009 (ip), vehicle: Klucel (hydroxypropylcellulose) (HPC)).

For the compound `BrC#CC1CCCCC1`, the T/C is 100 % of control (dose: 100.0 mg/kg/injection, schedule: Q04DX003 (ip), vehicle: saline) and 100 % of control under setting [1].

`Cc1ccc2c(ccc(/C=C/c3ccc(O)c4ccccc34)[n+]2C)c1`: the T/C is 95 % of control (dose: 75.0 mg/kg/injection, schedule: Q01DX001 (ip), vehicle: carboxymethylcellulose (CMC)); 97 % of control (dose: 150.0 mg/kg/injection, schedule: Q01DX001 (ip), vehicle: carboxymethylcellulose (CMC)); 96 % of control (dose: 300.0 mg/kg/injection, schedule: Q01DX001 (ip), vehicle: carboxymethylcellulose (CMC)).

As for `NNc1cnc2ccccc2n1`, the T/C was 90 % of control (dose: 100.0 mg/kg/injection, schedule: Q01DX009 (ip), vehicle: saline sonified); 101 % of control under setting [5]; 97 % of control under setting [6]; 113 % of control under setting [2].

As for `CC1CN1P(=O)(N1CC1C)N1CC1C.CC1CN1P(=O)(N1CC1C)N1CC1C.CC1CN1P(=O)(N1CC1C)N1CC1C.CC1CN1P(=O)(N1CC1C)N1CC1C.[Cu+2].[O-][Cl+3]([O-])([O-])O` (stereo unspecified), the T/C (dose: 25.0 mg/kg/injection, schedule: Q01DX009 (ip), vehicle: saline) was 111 % of control; the T/C (dose: 25.0 mg/kg/injection, schedule: Q04DX002 (ip), vehicle: saline) is 108 % of control; the T/C (dose: 50.0 mg/kg/injection, schedule: Q01DX009 (ip), vehicle: saline) is 119 % of control; the T/C (dose: 50.0 mg/kg/injection, schedule: Q04DX002 (ip), vehicle: saline) is 102 % of control; the T/C under setting [7] was 92 % of control; the T/C (dose: 100.0 mg/kg/injection, schedule: Q04DX002 (ip), vehicle: saline) is 108 % of control and 119 % of control.

`CCCCCCCCCCCCCCCCC[CH2][Sn]([Cl])([CH2]CCCCCCCCCCCCCCCCC)[CH2]CCCCCCCCCCCCCCCCC`: the T/C is 92 % of control (dose: 100.0 mg/kg/injection, schedule: Q04DX002 (ip), vehicle: Klucel (hydroxypropylcellulose) (HPC)); 100 % of control (dose: 200.0 mg/kg/injection, schedule: Q04DX002 (ip), vehicle: Klucel (hydroxypropylcellulose) (HPC)); 96 % of control (dose: 400.0 mg/kg/injection, schedule: Q04DX002 (ip), vehicle: Klucel (hydroxypropylcellulose) (HPC)).

As for `C=C(C)C(N)=O`, the T/C under setting [7] was 102 % of control and the T/C under setting [8] was 94 % of control.

With `CCOC(=O)c1ccc[n+](CCCl)c1`, the T/C runs as follows: (dose: 10.0 mg/kg/injection, schedule: Q01DX Z (ip), vehicle: saline) 98 % of control; (dose: 30.0 mg/kg/injection, schedule: Q01DX Z (ip), vehicle: saline) 97 % of control; (dose: 100.0 mg/kg/injection, schedule: Q01DX Z (ip), vehicle: saline) 90 % of control.

With `CC(C)=CCNc1ncnc2c1nnn2C1OC(CO)C(O)C1O` (stereo unspecified), the T/C by setting is: (dose: 100.0 mg/kg/injection, schedule: Q01DX001 (ip), vehicle: water) 105 % of control; (dose: 200.0 mg/kg/injection, schedule: Q01DX001 (ip), vehicle: water) 101 % of control; (dose: 400.0 mg/kg/injection, schedule: Q01DX001 (ip), vehicle: water) 101 % of control.

For the compound `CC(=O)OC1CC2CC1C1C3C=CC(C3)C21` (stereo unspecified), the T/C runs as follows: (dose: 100.0 mg/kg/injection, schedule: Q01DX001 (ip), vehicle: saline) 98 % of control; (dose: 200.0 mg/kg/injection, schedule: Q01DX001 (ip), vehicle: saline) 95 % of control; (dose: 400.0 mg/kg/injection, schedule: Q01DX001 (ip), vehicle: saline) 106 % of control.

For the compound `S=c1[nH]c2ccccc2s1.[Pb]`, the T/C runs as follows: under setting [9], 94 % of control; under setting [10], 100 % of control; (dose: 400.0 mg/kg/injection, schedule: Q01DX001 (ip), vehicle: Klucel (hydroxypropylcellulose) (HPC)) 100 % of control.

`c1ccc(C(c2ccccc2)n2cc[n+](C(c3ccccc3)c3ccccc3)c2)cc1`: the T/C by setting is: (dose: 12.5 mg/kg/injection, schedule: Q04DX002 (ip), vehicle: gum acacia) 96 % of control; (dose: 25.0 mg/kg/injection, schedule: Q04DX002 (ip), vehicle: gum acacia) 114 % of control.

Consider `O=C(Nc1ccccc1F)N(Cc1ccccc1)Cc1ccccc1`, for which the T/C runs as follows: under setting [11], 96 % of control; under setting [3], 104 % of control; under setting [4], 101 % of control.

`ClC(Cl)(Cl)C(N1CCN(c2ccccc2)CC1)N1CCN(c2ccccc2)CC1`: the T/C (dose: 100.0 mg/kg/injection, schedule: Q01DX001 (ip), vehicle: carboxymethylcellulose (CMC)) was 101 % of control; the T/C (dose: 200.0 mg/kg/injection, schedule: Q01DX001 (ip), vehicle: carboxymethylcellulose (CMC)) was 106 % of control; the T/C (dose: 400.0 mg/kg/injection, schedule: Q01DX001 (ip), vehicle: carboxymethylcellulose (CMC)) was 89 % of control.

With `COCCOC(=O)C(=O)OCCOC`, the T/C was 95 % of control under setting [11]; 97 % of control under setting [9]; 97 % of control under setting [3]; 90 % of control under setting [10]; 93 % of control under setting [4].

`COc1ccc(OC(=O)Nc2ccc(C)cc2[N+](=O)[O-])cc1`: the T/C runs as follows: under setting [5], 102 % of control; under setting [6], 98 % of control; under setting [2], 93 % of control.

On to `c1ccc(NNCC[P+](c2ccccc2)(c2ccccc2)c2ccccc2)cc1`, for which, where the note is “dose: 15.0 mg/kg/injection, schedule: Q01DX001 (ip), vehicle: carboxymethylcellulose (CMC)”, the T/C was 91 % of control.

In the case of `CC1CCCC(C)N1NC1=NCCO1` (stereo unspecified), the T/C (dose: 25.0 mg/kg/injection, schedule: Q01DX009 (ip), vehicle: saline with Tween-80) is 96 % of control; the T/C (dose: 50.0 mg/kg/injection, schedule: Q01DX009 (ip), vehicle: saline with Tween-80) was 98 % of control; the T/C (dose: 100.0 mg/kg/injection, schedule: Q01DX009 (ip), vehicle: saline with Tween-80) is 97 % of control; the T/C under setting [5] was 100 % of control.

As to `CCCCCCCCCCCCCCCCCCOS(=O)(=O)c1ccc(C)cc1`, the T/C reads like this: (dose: 12.5 mg/kg/injection, schedule: Q01DX009 (ip), vehicle: Klucel (hydroxypropylcellulose) (HPC)) 98 % of control; (dose: 25.0 mg/kg/injection, schedule: Q01DX009 (ip), vehicle: Klucel (hydroxypropylcellulose) (HPC)) 95 % of control; under setting [11], 95 % of control.

Consider `CC(=O)c1cccc(OCC(O)CN(C(C)C)C(C)C)c1` (stereo unspecified), for which the T/C under setting [7] was 98 % of control and the T/C under setting [8] was 98 % of control.
